Experimental findings from US20160151505A1 (KONINKLIJKE PHILIPS N.V., priority 2011, published 2016) are described below.

Data set [1] can be described thus: Hydrolytic stability tests of tetrazines. Format: physicochemical. The text has this:
This solution was filtered and, the decrease of the absorption band at 525 nm was monitored using UV spectroscopy.

Data set [2] can be described thus: Reactivity of tetrazines towards trans-cyclooct-4-ene-1-ol (competition experiment). As to conditions: reference tetrazine 5; reaction with trans-cyclooct-4-ene-1-ol (axial isomer). How it is done: A competition experiment was performed to determine the reactivity ratio of a specific tetrazine and 3-(5-acetamido-2-pyridyl)-6-(2-pyridyl)-1,2,4,5-tetrazine (that was chosen as the reference tetrazine), in the inverse-electron demand Diels-Alder reaction with trans-cyclooct-4-ene-1-ol (“minor” isomer with OH in axial position, see: Whitham et al. J. Chem. Soc. (C), 1971, 883-896)).
To acetonitrile (0.100 mL) was added 5 μL of a solution of the specific tetrazine in DMSO (25 mM) and 5 μL of a solution of the reference tetrazine in DMSO (25 mM). This mixture was diluted with water (0.9 mL), and the absolute amounts of both tetrazines were determined by HPLC-MS/PDA analysis. Subsequently, a solution of trans-cyclooct-4-ene-1-ol (axial isomer) in DMSO (25 μL 2.5 mM) was slowly added, and the mixture was stirred for 5 min. Again, the absolute amounts of both tetrazines were determined by HPLC-MS/PDA analysis, and conversions for both tetrazines was calculated. From these conversions, the reactivity ratio (R=k2,TCO/k2,Ref) of both tetrazines was calculated using the mathematical procedure from Ingold and Shaw (J. Chem. Soc., 1927, 2918-2926).

A short description of data set [3]: Second-order rate constant determination of trans-cyclooctene derivatives with tetrazine. As to conditions: UV-visible spectroscopy in acetonitrile at 20° C. How it is done: The kinetics of the inverse-electron demand Diels-Alder reaction of a trans-cyclooctene derivative with 3-(5-acetamido-2-pyridyl)-6-(2-pyridyl)-1,2,4,5-tetrazine, performed in acetonitrile at 20° C., was determined using UV-visible spectroscopy. A cuvette was filled with acetonitrile (3 mL) and equilibrated at 20° C. 3-(5-Acetamido-2-pyridyl)-6-(2-pyridyl)-1,2,4,5-tetrazine (2.50×10^−7 mol) was added, followed by the trans-cyclooctene derivative (2.50×10^−7 mol). The decay of the absorption at λ=540 nm was monitored, and from this curve the second-order rate constant, k2, was determined assuming second order rate kinetics.

Data set [4] in a line: Stability of trans-cyclooctene derivatives in PBS. The following applies: PBS buffer.
Method: (§1) 10 μL of a solution of the specific trans-cyclooctene derivative in dioxane (25 mM) was diluted with PBS buffer (3 mL), and this solution was stored at 20° C. in the dark.
(§2) The fate of the TCO compound was monitored by HPLC-MS analysis, and an estimation of the half-life time was made based on the release of the model prodrug.
Data set [5] has as its system A431 squamous carcinoma cells. Kind of data set: Cell proliferation assay (MTT). The following applies: Homo sapiens. Format: cell-based.
The nature of data set [6]: Reactivity of tetrazines towards trans-cyclooct-4-ene-1-ol (competition experiment). As to conditions: values marked *: 50:50 mixture of PBS and acetonitrile; reference tetrazine 5.
Data set [7] in a line: Activation of doxorubicin prodrugs (release of doxorubicin). The following applies: after 1 hr at 20° C. How it is done: […] Next, […](E)-cyclooctene-doxorubicin conjugate (64, 2.67×10^−5 g; 2.50×10^−8 mol) was added.
[…] Next, (E)-cyclooctene-doxorubicin conjugate (68, 2.67×10^−5 g; 2.50×10^−8 mol) was added.

The nature of another data set: physchem. The following applies: buffer.
Where [8] appears, read: values marked *: 50:50 mixture of PBS and acetonitrile.
[9] abbreviates: stability in PBS at 20° C. t1/2, PBS, 20° C.
The mark [10] stands for this setting: stability in PBS t1/2, PBS, 37° C.

One may read the half-life as the time in which the quantity being followed falls by half. The IC50 is the concentration that inhibits the measured activity by half.

SMILES strings stand for the structures. Like-named read-outs stand apart in the source and are kept apart here. Marks after values point to notes of the source that are not given here.

Method for physchem: as §1, §2

Consider `Nc1ccc(-c2nnc(-c3ccc(N)cc3)nn2)cc1` [compound 13, 3,6-bis(4-aminophenyl)-1,2,4,5-tetrazine], for which the half-life at 83 µM in data set [1] (setting [8]) is greater than 300 h. In turn, `c1cncc(-c2nnc(-c3cccnc3)nn2)c1` yielded a half-life at 83 µM in data set [1] (PBS buffer, PBS, 20° C.) greater than 150 h. Besides, the “Reactivity ratio (R = k2,TZ/k2,Ref)” value in data set [2] is 0.19. Taken in the same sequence, the figures for `c1cc(-c2nnc(-c3ccncc3)nn2)ccn1` were 2.4 h and 0.83. For `c1c[nH]c(-c2nnc(-c3ccc[nH]3)nn2)c1`, the half-life at 83 µM in data set [1] (setting [8]) was greater than 300 h.

As for `O=C1CCCC(=O)N1c1ccc(-c2nnc(-c3ccccn3)nn2)nc1`, the half-life at 83 µM in data set [1] (PBS buffer, PBS, 20° C.) was 24 h. Besides, in data set [2], the “Reactivity ratio (R = k2,TZ/k2,Ref)” value came to 1.6.

`Fc1ccc(-c2nnc(-c3ccc(F)cn3)nn2)nc1` showed a half-life at 83 µM in data set [1] (PBS buffer, PBS, 20° C.) of 115 h. On to `COc1cc(COC(=O)NC2CC/C=C/CCC2N)cc(OC)c1OC` (stereo not drawn) [compound 37, cis-(E)-3,4,5-trimethoxybenzyl(8-aminocyclooct-4-en-1-yl)carbamate], for which, in data set [3], the “rate contant* k2” value was 300 M⁻¹ s⁻¹. Besides, in data set [4], the half-life at 83 µM is greater than 240 h. For `CCCC(=O)Nc1ccc(-c2nnc(-c3ccc(C(F)(F)F)cn3)nn2)nc1`, the half-life at 83 µM in data set [1] (setting [8]) is 35 h. For the molecule `Nc1ccc(-c2nnc(-c3ccccc3)nn2)cc1`, the half-life at 83 µM in data set [1] (setting [8]) is greater than 300 h.

Turning to `COc1cccc2c1C(=O)c1c(O)c3c(c(O)c1C2=O)C[C@@](O)(C(=O)CO)C[C@@H]3O[C@H]1C[C@H](N)[C@H](O)[C@H](C)O1` [Dox, Doxorubicin, reference compound], the IC50 in data set [5] (A-431, A431 cell line, 6 h incubation at 37° C. followed by medium replacement, read-out: IC50) came to 38 ± 3 nM. Take `Nc1cccc(-c2nnc(-c3ccccc3)nn2)c1`: the half-life at 83 µM in data set [1] (setting [8]) was greater than 300 h. `Cc1cccc(C)c1OC(=O)NC1CC/C=C/CCC1N` (stereo not shown) [compound 43] came in with a half-life at 83 µM in data set [4] greater than 480 h. `CCCC(=O)Nc1ccc(-c2nncnn2)nc1` gave a half-life at 83 µM in data set [1] (PBS buffer, PBS, 20° C.) of 10.3 h. Also, the “Reactivity ratio (R = k2,TZ/k2,Ref)” value in data set [2] worked out at 2.8. For the molecule `CC(=O)Nc1ccc(-c2nnc(-c3ccccn3)nn2)nc1` [compound 5, 3-(5-acetamido-2-pyridyl)-6-(2-pyridyl)-1,2,4,5-tetrazine], the half-life at 83 µM in data set [1] (PBS buffer, PBS, 20° C.) was 80 h. Also, the “Reactivity ratio (R = k2,TZ/k2,Ref)” value in data set [2] was determined as 1. Consider `c1csc(-c2nnc(-c3cccs3)nn2)c1`, for which the half-life at 83 µM in data set [1] (setting [8]) is greater than 300 h. `CCCC(=O)Nc1ccc(-c2nnc(-c3ccc(F)cn3)nn2)nc1` had a half-life at 83 µM in data set [1] (PBS buffer, PBS, 20° C.) of 117 h. Also, the “Reactivity ratio (R = k2,TZ/k2,Ref)” value in data set [2] is recorded as 0.95. `Oc1ccc(-c2nnc(-c3ccc(O)cc3)nn2)cc1` [compound 11, 3,6-bis(4-hydroxyphenyl)-1,2,4,5-tetrazine]: the half-life at 83 µM in data set [1] (setting [8]) is greater than 300 h. With `NC1CC/C=C/CCC1NC(=O)Nc1ccccc1` (stereo not drawn) [47 major, cis phenyl((E)-8-aminocyclooct-4-en-1-yl)urea], the half-life at 83 µM in data set [4] is greater than 480 h. Still for that read-out and setting: next, `NC1/C=C/CCCCC1NC(=O)Oc1ccccc1` (stereo not drawn) [compound 56, trans phenyl(E)-2-aminocyclooct-3-en-1-yl carbamate]: 120 h. Consider `Nc1ccccc1-c1nnc(-c2ccccc2N)nn1` [compound 9, 3,6-bis(2-aminophenyl)-1,2,4,5-tetrazine], for which the half-life at 83 µM in data set [1] (setting [8]) is greater than 300 h. Besides, the “Reactivity ratio (R = k2,TZ/k2,Ref)” value in data set [6] is listed as <0 .01*. The molecule `c1cnc(-c2nnc(-c3cnccn3)nn2)cn1` had a half-life at 83 µM in data set [1] (PBS buffer, PBS, 20° C.) of 0.68 h. For the same molecule, the “Reactivity ratio (R = k2,TZ/k2,Ref)” value in data set [2] is 1.5.

With `c1ccc(-c2nnc(-c3ccccc3)nn2)cc1`, the half-life at 83 µM in data set [1] (setting [8]) was greater than 300 h. In data set [1] (PBS buffer, PBS, 20° C.), `CCCNC(=O)c1ccc(-c2nnc(-c3ccccn3)nn2)nc1` gave a half-life at 83 µM of 4 h.

Regarding `CCCC(=O)Nc1ccc(-c2nnc(-c3ncccn3)nn2)nc1`, the half-life at 83 µM in data set [1] (PBS buffer, PBS, 20° C.) was 3.2 h. Besides, in data set [2], the “Reactivity ratio (R = k2,TZ/k2,Ref)” value turned out to be 2.7. `NCc1ccc(-c2nncnn2)cc1`: the half-life at 83 µM in data set [1] (PBS buffer, PBS, 20° C.) is 183 h. In addition, the “Reactivity ratio (R = k2,TZ/k2,Ref)” value in data set [2] is recorded as 0.77. As to `c1ccc(-c2nnc(-c3ccccn3)nn2)nc1` [compound 2, 3,6-bis(2-pyridyl)-1,2,4,5-tetrazine], the half-life at 83 µM in data set [1] (PBS buffer, PBS, 20° C.) was 44 h.

In the case of `COc1cccc2c1C(=O)c1c(O)c3c(c(O)c1C2=O)C[C@@](O)(C(=O)CO)C[C@@H]3OC1CC(NC(=O)OCc2ccc(CC(=O)NC3CC/C=C/CCC3N)cc2)[C@H](O)C(C)O1` (stereo partly shown) [compound 64, (E)-cyclooctene-doxorubicin conjugate], the doxorubicin released in data set [7] (with 3,6-Diphenyl-1,2,4,5-tetrazine) turned out to be 48%; in data set [7] (with 3-(5-Acetamido-2-pyridyl)-6-(2-pyridyl)-1,2,4,5-tetrazine (5)) it was 30%; in data set [7] (with 3-(5-Butyramido-2-pyridyl)-6-(2-pyrimidyl)-1,2,4,5-tetrazine) it was 20%; in data set [7] (with 3-Methyl-6-(2-pyridyl)-1,2,4,5-tetrazine (7)), 52%; in data set [7] (with 4-(1,2,4,5-Tetrazin-3-yl)phenylmethanamine), 50%. The IC50 in data set [5] (A-431, 6 h, A431 cell line, 6 h incubation at 37° C. followed by medium replacement) stood at 128 ± 17 nM; in data set [5] (A-431, 6 h, A431 cell line, in combination with tetrazine 29 (10 μM), 6 h incubation at 37° C. followed by medium replacement), 49 ± 4 nM; in data set [5] (A-431, A431 cells, combination of the prodrug 64 and tetrazine 29), 49 ± 4 nM; in data set [5] (A-431, A431 cells, prodrug alone), 128 nM. Besides, the half-life was 24 h in the data set “physchem” (setting [9]) and 3.6 h in the data set “physchem” (setting [10]).

As for `CCCNC(=O)c1ccc(-c2nnc(-c3ncccn3)nn2)nc1`, the half-life at 83 µM in data set [1] (PBS buffer, PBS, 20° C.) is 0.42 h. Also, the “Reactivity ratio (R = k2,TZ/k2,Ref)” value in data set [2] was 2. The like results for `Cc1nnc(-c2ccccn2)nn1` [compound 7, 3-(2-pyridyl)-6-methyl-1,2,4,5-tetrazine] were, in that order, 230 h and 0.25.

Consider `CCCC(=O)Nc1ccc(-c2nnc(C)nn2)nc1`, for which the half-life at 83 µM in data set [1] (PBS buffer, PBS, 20° C.) is 300 h. In data set [2], the “Reactivity ratio (R = k2,TZ/k2,Ref)” value was determined as 0.18. In data set [1] (PBS buffer, PBS, 20° C.), `c1ccc(-c2nncnn2)nc1` had a half-life at 83 µM of 2.7 h. On to `FC(F)(F)c1ccc(-c2nnc(-c3ccc(C(F)(F)F)cn3)nn2)nc1`, for which the half-life at 83 µM in data set [1] (setting [8]) is 3.6 h. Regarding `CC(C)(C)c1ccccc1OC(=O)NC1CC/C=C/CCC1N` (stereo not shown) [compound 45], in data set [4], the half-life at 83 µM was greater than 480 h. Regarding `c1c[nH]c(-c2nnc(-c3ncc[nH]3)nn2)n1`, the “Reactivity ratio (R = k2,TZ/k2,Ref)” value in data set [2] came out at 1.2. In the case of `O=C(Oc1ccccc1)N1C/C=C/CNCC1` [compound 61, (E)-phenyl 2,3,4,5-tetrahydro-1,4-diazocine-1(8H)-carboxylate], the “rate contant* k2” value in data set [3] was found to be 47 M⁻¹ s⁻¹. The same molecule came in with a half-life at 83 µM in data set [4] greater than 480 h. On to `Nc1ccc(-c2nnc(-c3ccccn3)nn2)nc1`, for which the half-life at 83 µM in data set [1] (PBS buffer, PBS, 20° C.) is 340 h. Besides, in data set [2], the “Reactivity ratio (R = k2,TZ/k2,Ref)” value turned out to be 0.4. For `c1cc(-c2nnc(-c3ccsc3)nn2)cs1`, the half-life at 83 µM in data set [1] (setting [8]) was greater than 300 h. `NCc1nnc(CN)nn1` [compound 20, 3,6-bis(aminomethyl)-1,2,4,5-tetrazine]: in data set [1] (PBS buffer, PBS, 20° C.), the half-life at 83 µM is 16 h.

In turn, `Cc1ccccc1OC(=O)NC1CC/C=C/CCC1N` (stereo not shown) [compound 39] showed a half-life at 83 µM in data set [4] of 192 h. For the molecule `COc1cccc2c1C(=O)c1c(O)c3c(c(O)c1C2=O)C[C@@](O)(C(=O)CO)C[C@@H]3OC1CC(NC(=O)OCc2cc(C)c(CC(=O)NC3CC/C=C/CCC3N)c(C)c2)[C@H](O)C(C)O1` (stereo partly shown) [compound 68, (E)-cyclooctene-doxorubicin conjugate], the half-life in the data set “physchem” (setting [9]) is 624 h; in “physchem” (setting [10]), 149 h.

`COc1ccccc1OC(=O)NC1CC/C=C/CCC1N` (stereo not shown) [compound 41] had a half-life at 83 µM in data set [4] of 21 h. Take `N[C@H]1CC/C=C/CC[C@H]1NC(=O)Oc1ccccc1` (relative stereo) [compound 36, cis-(E)-phenyl(8-aminocyclooct-4-en-1-yl)carbamate]: the “rate contant* k2” value in data set [3] worked out at 240 M⁻¹ s⁻¹. For the same molecule, in data set [4], the half-life at 83 µM was 27 h.
